# Legend:
# [1] = system: Wistar rats; assay: Diuresis investigations in conscious rats kept in metabolism cages; assay type: in vivo; conditions: rat
# Protocol: Wistar rats (220-450 g body weight) are kept with free access to feed (Altromin) and drinking water. During the experiment, the animals are kept with free access to drinking water for 4 to 8 or up to 24 hours individually in metabolism cages suitable for rats of this weight class (Tecniplast Deutschland GmbH, D-82383 Hohenpeißenberg). At the beginning of the experiment, the animals are administered the test substance in a volume of 1 to 3 ml/kg body weight of a suitable solvent by means of gavage into the stomach. Control animals only receive solvent. Controls and substance tests are carried out in parallel on the same day. Control groups and substance-dose groups each consist of 4 to 8 animals. During the experiment, the urine excreted by the animals is collected continuously in a receiver at the base of the cage. The volume of urine per time unit is determined separately for each animal, and the concentration of urinary electrolytes is measured by standard methods of flame photometry. Before the beginning of the experiment, the body weight of the individual animals is determined.
# [2] = molecular target: human V1a receptor (Homo sapiens (Human), UniProt P37288); assay: Cellular in vitro assay for vasopressin receptor activity, V1a receptor cell line (aequorin luminescence); assay type: cell-based; conditions: CHO cell line transfected with human V1a receptor; [Arg8]-vasopressin at EC50; read-out: IC50 hV1a
# human V1a receptor, sequence (P37288 whole entry): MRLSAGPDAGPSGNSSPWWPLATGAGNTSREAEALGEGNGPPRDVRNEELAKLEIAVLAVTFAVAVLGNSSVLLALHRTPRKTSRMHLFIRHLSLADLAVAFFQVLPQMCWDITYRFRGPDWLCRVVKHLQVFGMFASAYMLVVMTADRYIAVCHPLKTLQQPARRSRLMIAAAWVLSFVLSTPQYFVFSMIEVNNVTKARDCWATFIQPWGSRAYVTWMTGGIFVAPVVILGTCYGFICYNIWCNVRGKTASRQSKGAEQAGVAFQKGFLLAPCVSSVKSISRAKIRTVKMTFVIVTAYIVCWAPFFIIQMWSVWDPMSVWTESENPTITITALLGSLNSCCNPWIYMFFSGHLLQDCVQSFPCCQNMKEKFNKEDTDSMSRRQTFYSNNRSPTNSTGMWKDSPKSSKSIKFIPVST
# Protocol: (§1) The identification of agonists and antagonists of the V1a and V2 vasopressin receptors from humans, rats and dogs as well as the quantification of the activity of the compounds of the invention is carried out using recombinant cell lines. These cell lines originally derive from a hamster's ovary epithelial cell (Chinese Hamster Ovary, CHO K1, ATCC: American Type Culture Collection, Manassas, Va. 20108, USA). The test cell lines constitutively express the human, rat or dog V1a or V2 receptors. In case of the Gαq-coupled V1a receptors, cells are also stably transfected with a modified form of the calcium-sensitive photoproteins aequorin (human and rat V1a) or obelin (dog V1a), which, after reconstitution with the cofactor coelenterazine, emit light when there are increases in free calcium concentrations [Rizzuto R, Simpson A W, Brini M, Pozzan T, Nature 358, 325-327 (1992); Illarionov B A, Bondar V S, Illarionova V A, Vysotski E S, Gene 153 (2), 273-274 (1995)]. The resulting vasopressin receptor cells react to stimulation of the recombinantly expressed V1a receptors by intracellular release of calcium ions, which can be quantified by the resulting photoprotein luminescence. The Gs-coupled V2 receptors are stably transfected into cell lines expressing the gene for firefly luciferase under control of a CRE-responsible promoter. Activation of V2 receptors induces the activation of the CRE-responsive promoter via cAMP increase, thereby inducing the expression of firefly luciferase. The light emitted by photoproteins of V1a cell lines as well as the light emitted by firefly luciferase of V2 cell lines corresponds to the activation or inhibition of the respective vasopressin receptor. The bioluminescence of the cell lines is detected using a suitable luminometer [Milligan G, Marshall F, Rees S, Trends in Pharmacological Sciences 17, 235-237 (1996)].
# On the day before the assay, the cells are plated out in culture medium (DMEM/F12, 2% FCS, 2 mM glutamine, 10 mM HEPES, 5 μg/ml coelenterazine) in 384-well microtiter plates and kept in a cell incubator (96% humidity, 5% v/v CO2, 37° C.). On the day of the assay, test compounds in various concentrations are placed for 10 minutes in the wells of the microtiter plate before the agonist [Arg^8]-vasopressin at EC50 concentration is added. The resulting light signal is measured immediately in the luminometer.
# [3] = molecular target: human V2 receptor (Homo sapiens (Human), UniProt P30518); assay: Cellular in vitro assay for vasopressin receptor activity, V2 receptor cell line (CRE-luciferase); assay type: cell-based; conditions: CHO cell line transfected with human V2 receptor; [Arg8]-vasopressin at EC50; read-out: IC50 hV2
# human V2 receptor, sequence (P30518 whole entry): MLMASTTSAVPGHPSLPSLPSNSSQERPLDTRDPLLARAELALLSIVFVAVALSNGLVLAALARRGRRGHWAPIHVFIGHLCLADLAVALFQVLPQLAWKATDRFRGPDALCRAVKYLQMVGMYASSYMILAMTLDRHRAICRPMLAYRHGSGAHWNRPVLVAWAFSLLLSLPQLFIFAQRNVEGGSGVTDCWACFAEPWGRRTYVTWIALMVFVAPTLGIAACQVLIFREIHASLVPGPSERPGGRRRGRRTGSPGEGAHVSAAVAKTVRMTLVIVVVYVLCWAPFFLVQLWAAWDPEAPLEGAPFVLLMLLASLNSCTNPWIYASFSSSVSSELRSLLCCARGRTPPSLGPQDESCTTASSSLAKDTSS
# Protocol: as §1
# On the day before the assay, the cells are plated out in culture medium (DMEM/F12, 2% FCS, 2 mM glutamine, 10 mM HEPES) in 384-well microtiter plates and kept in a cell incubator (96% humidity, 5% v/v CO2, 37° C.). […] Upon addition of the cell lysis reagent Triton™ and the substrate luciferin, luminescence of firefly luciferase is measured in a luminometer.
Structure (SMILES),IC50 [2] [nM],IC50 [3] [nM],Urinary volume [% vs. control = 100%] ([1]; 0.3 mg/kg p.o.),Urinary volume [% vs. control = 100%] ([1]; 3.0 mg/kg p.o.)
O=c1n(Cc2cn(-c3ccccc3Cl)nn2)nc(-c2ccc(Cl)cc2)n1C[C@H](O)C(F)(F)F [Example No. WO 2011/104322 101],–,–,111,255
O=c1n(Cc2cn(-c3ccccc3Cl)cn2)nc(-c2ccc(Cl)cc2)n1C[C@H](O)C(F)(F)F [Example No. WO 2011/104322 110],–,–,114,274
O=C(O)Cn1nc(Cn2nc(-c3ccc(Cl)cc3)n(C[C@H](O)C(F)(F)F)c2=O)nc1-c1ccccc1Cl [Example No. WO 2011/104322 60],–,–,96,84
"CC(=O)c1nc(Cn2nc(-c3ccc(Cl)cc3)n(C[C@H](O)C(F)(F)F)c2=O)nn1-c1cccc(F)c1 [Example 2, 2-{[5-Acetyl-1-(3-fluorophenyl)-1H-1,2,4-triazol-3-yl]methyl}-5-(4-chlorophenyl)-4-[(2S)-3,3,3-trifluoro-2-hydroxypropyl]-2,4-dihydro-3H-1,2,4-triazol-3-one]",7.5,6.2,–,–
NC(=O)Cn1nc(Cn2nc(-c3ccc(Cl)cc3)n(C[C@H](O)C(F)(F)F)c2=O)nc1-c1ccccc1Cl [Example No. WO 2011/104322 68],–,–,87,121
O=c1n(Cc2nnc(-c3ccccc3Cl)[nH]2)nc(-c2ccc(Cl)cc2)n1C[C@H](O)C(F)(F)F [Example No. WO 2011/104322 54],–,–,85,188
"CC(=O)c1nc(Cn2nc(-c3ccc(Cl)cc3)n(C[C@H](O)C(F)(F)F)c2=O)nn1-c1cccc(Cl)c1 [Example 1, 2-{[5-Acetyl-1-(3-chlorophenyl)-1H-1,2,4-triazol-3-yl]methyl}-5-(4-chlorophenyl)-4-[(2S)-3,3,3-trifluoro-2-hydroxypropyl]-2,4-dihydro-3H-1,2,4-triazol-3-one]",34.5,2.3,344,554

# Now from value to molecule, other results behind:
IC50 [2] [nM],IC50 [3] [nM],Structure (SMILES),Urinary volume [% vs. control = 100%] ([1]; 0.3 mg/kg p.o.),Urinary volume [% vs. control = 100%] ([1]; 3.0 mg/kg p.o.)
1.3,6.7,COC(=O)Cn1nc(-c2ccccc2Cl)nc1Cn1nc(-c2ccc(Cl)cc2)n(C[C@H](O)C(F)(F)F)c1=O [Example No. WO 2011/104322 56],128,85
55,2.8,"CC(O)c1nc(Cn2nc(-c3ccc(Cl)cc3)n(CC(=O)C(F)(F)F)c2=O)nn1-c1cccc(Cl)c1 [Example 5, 5-(4-Chlorophenyl)-2-({1-(3-chlorophenyl)-5-[(1S,R)-1-hydroxyethyl]-1H-1,2,4-triazol-3-yl}methyl)-4-(3,3,3-trifluoro-2-oxopropyl)-2,4-dihydro-3H-1,2,4-triazol-3-one]",–,–
0.5,4.9,"CC(=O)c1nc(Cn2nc(-c3ccc(Cl)cc3)n(C[C@H](O)C(F)(F)F)c2=O)nn1-c1ccccc1Cl [Example 3, 2-{[5-Acetyl-1-(2-chlorophenyl)-1H-1,2,4-triazol-3-yl]methyl}-5-(4-chlorophenyl)-4-[(2S)-3,3,3-trifluoro-2-hydroxypropyl]-2,4-dihydro-3H-1,2,4-triazol-3-one]",172,679
123,7.7,"CC(=O)c1nc(Cn2nc(-c3ccc(Cl)cc3)n(CC(=O)C(F)(F)F)c2=O)nn1-c1cccc(Cl)c1 [Example 4, 2-{[5-Acetyl-1-(3-chlorophenyl)-1H-1,2,4-triazol-3-yl]methyl}-5-(4-chlorophenyl)-4-(3,3,3-trifluoro-2-oxopropyl)-2,4-dihydro-3H-1,2,4-triazol-3-one]",–,–

# Reference: US10800746B2, “Oxoalkyl-substituted phenyltriazole derivatives and uses thereof” (BAYER PHARMA AKTIENGESELLSCHAFT, priority 2016, dated 2020)
